# Data reported in patent EP0922458A1, “Potentiation of temozolomide by an ATase inhibitor” (CANCER RESEARCH CAMPAIGN TECHNOLOGY LIMITED, priority 1993, dated 1994).
# Where two headings read alike, the source gives them in different places.
# Legend:
# [1] = biological target: T1, O^6-alkylguanine DNA alkyltransferase (ATase) (Homo sapiens, UniProt P16455); assay: O^6-alkylguanine DNA alkyltransferase assay of treated cells; assay type: cell-based; settings: for ATase content after BG: concentrations of BG used; for IC50: three-hour incubation, read-out: concentration causing 50% reduction in ATase content
# T1 construct: endogenous in cells; host or cells: human tumour cell lines U373, MCF-7, LOVO, MAWI (extracts of treated cells)
# T1 sequence (P16455 1-207): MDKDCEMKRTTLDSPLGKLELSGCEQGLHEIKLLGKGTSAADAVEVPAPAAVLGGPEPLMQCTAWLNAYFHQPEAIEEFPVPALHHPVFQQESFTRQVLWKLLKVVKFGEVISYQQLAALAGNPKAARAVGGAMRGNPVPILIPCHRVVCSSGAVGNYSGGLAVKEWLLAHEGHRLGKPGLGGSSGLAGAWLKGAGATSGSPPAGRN
# Experimental: This assay was carried out as described by Lee et al., Cancer Res., 51:619 (1991). Thus, varying amounts of cell extracts are incubated with DNA which contains O^6-methylguanine labelled with [^3H] in the methyl group, at preferably 37°C for 2 hours in a total volume of 300 µl of 1 mg/ml of bovine serum albumin in buffer 1. After incubation, bovine serum albumin (100µl of a 10 mg/ml solution in buffer 1) and perchloric acid (100µl of a 4 M solution) are added in rapid succession. A further 2 ml of 1M perchloric is added and the mixture heated at 75°C for 40 minutes to degrade the DNA to acid soluble material. The protein, which contains the methylated ATase, is then collected by centrifugation, washed with 4ml of 1M perchloric acid before being resuspended in 300 µl of 0.01M sodium hydroxide and dissolved in 3ml of aqueous scintillation fluid (Ecoscint A: National Diagnostics), and counted. The protein content of the cells was determined with a BioRad protein assay kit using bovine serum albumin as a standard. ATase activity is expressed as fmol methyl transferred to protein per mg of total protein in the extract.
# [2] = Stability in tissue culture medium (HPLC analysis); assay type: physicochemical; settings: 37°C
# [3] = tested on: human tumour cell lines; assay: Single dose cytotoxicity, summary over the tumour cell lines; assay type: cell-based
# Experimental: (§1) Cell lines were routinely grown as monolayers in DMEM supplemented with 10% foetal calf serum, 25mM HEPES, glutamine and penicillin/streptomycin. Cytotoxicity studies were carried out in HEPES-free medium in a 5% CO2 atmosphere. 750-1000 cells/well were plated in 96 well plates and, after overnight incubation, were treated for 2 hours with or without 33 µM BG. Temozolomide or CCNU was then added for 1 hour in the same medium, the final DMSO concentration not exceeding 1%. […] For the repeat temozolomide dozing schedule, cells were given consecutive 24 hour treatments, with fresh medium each day. Assays were carried out at least in duplicate.
# [4] = tested on: MCF-7; assay: Single dose cytotoxicity (sulphorhodamine protein assay); assay type: cell-based, human; settings: for IC50: Homo sapiens, MCF7, MCF-7 (breast), 1 hour drug; for Ratio IC50 [-BG]/IC50 [+BG]: MCF-7
# Experimental: as §1
# [5] = tested on: ZR-75-1; assay: as above; assay type: cell-based, human; settings: for IC50: Homo sapiens, ZR-75-1 (breast), 1 hour drug; for Ratio IC50 [-BG]/IC50 [+BG]: ZR-75-1
# Experimental: as §1
# [6] = tested on: MAWI; assay: as above; assay type: cell-based, human; settings: for IC50: Homo sapiens, MAWI (colo-rectal), 1 hour drug; for Ratio IC50 [-BG]/IC50 [+BG]: MAWI
# Experimental: as §1
# [7] = tested on: U373; assay: as above; assay type: cell-based, human; settings: for IC50: Homo sapiens, U373 MG, U373 (astrocytoma), 1 hour drug; for Ratio IC50 [-BG]/IC50 [+BG]: U373
# Experimental: as §1
# [8] = tested on: LS174T; assay: as above; assay type: cell-based, human; settings: for IC50: Homo sapiens, LS174T (colo-rectal), 1 hour drug; for Ratio IC50 [-BG]/IC50 [+BG]: LS174T
# Experimental: as §1
# [9] = tested on: U87MG; assay: as above; assay type: cell-based, human; settings: for IC50: Homo sapiens, U-87 MG, U87MG (astrocytoma), 1 hour drug; for Ratio IC50 [-BG]/IC50 [+BG]: U87MG
# Experimental: as §1
# [10] = tested on: LOVO; assay: as above; assay type: cell-based, human; settings: for IC50: Homo sapiens, LOVO (colo-rectal), 1 hour drug; for Ratio IC50 [-BG]/IC50 [+BG]: LOVO
# Experimental: as §1
# [11] = tested on: SF767 cells; settings: WO 91/13898; cited from earlier work
# [12] = tested on: control XP cells (pZip); assay: Cytotoxicity in XP lines (MTT assay); assay type: cell-based; settings: for IC50: 120 h, XP line with ATase < 2 fmol/mg protein (control pZip; printed on the line 'phAT'), MTT assay, 5 days, without BG; for sensitivity of control XP cells relative to human ATase cDNA-transfected cells: pZip versus phAT XP cells, Table I
# Experimental: (§2) Human ATase cDNA-transfected or control XP cells [Fan et al., Nucleic Acid. Res., 18:5723 (1990)] were grown in MEM and 1000 cells/well were plated. After a 3 hour incubation, temozolomide, freshly diluted into MEM, was added and the plates incubated for 5 days. Survivals were assayed as described by Morten et al., Carcinogenesis, 13:483 (1992). In the BG experiments, 300 cells were plated in triplicate onto 9cm plates and allowed to attach for 5 hours. BG was added (10 µM in MEM) 3 hours prior to the treatment with temozolomide which was freshly diluted into MEM containing 10 µM BG. After 7 days, colonies were strained with Giemsa and counted.
# [13] = tested on: human ATase cDNA-transfected XP cells (phAT); assay: Cytotoxicity in XP lines (MTT assay); assay type: cell-based; settings: 120 h, XP line with ATase 1240 fmol/mg protein (phAT; printed on an unlabelled line), 5 days, without BG
# Experimental: as §2
# [14] = tested on: control XP cells; assay: Colony forming assay with BG pretreatment; assay type: cell-based; settings: 10 µM BG 3 hours before, colonies after 7 days
# Experimental: as §2
# [15] = tested on: U373; assay: Repeated dose temozolomide cytotoxicity; assay type: cell-based, human; settings: for IC50: Homo sapiens, U373 MG, U373, DAY 4 of repeated daily 24 hour doses
# Experimental: as §1
# [16] = tested on: MCF-7; assay: Repeated dose temozolomide cytotoxicity; assay type: cell-based; settings: Homo sapiens
# Experimental: as §1
# [17] = tested on: MAWI; assay: Repeated dose temozolomide cytotoxicity; assay type: cell-based; settings: Homo sapiens
# Experimental: as §1
# [18] = tested on: ZR-75-1; assay: Cellular uptake of [^14C]-labelled temozolomide; assay type: in vitro ADME, human; settings: 4°C, 200 µM labelled drug
# Experimental: (§3) 8-carbamoyl-3-[^14C]methylimidazo[5,1-d]-1,2,3,5-tetrazin-4-(3H)-one (specific activity 26.3mCi/mmole) was kindly supplied by Dr. John Slack (Aston Molecules Ltd, Birmingham, UK). Cell suspensions (5 x 10^6/ml) were equilibrated at 4°C and treated with 200 µM of the labelled drug. 10^6 cells were pipetted into eppendorf tubes and centrifuged through 250µl of an oil mixture (4:1 "Three-in-One"/Dow Corning silicone oil). The aqueous layer was aspirated and the oil layer gently washed with a further 300 µl of saline. After centrifugation both layers were aspirated, the cell pellet dissolved in a tissue solubilizer such as Protosol® (quaternary ammonium hydroxide in toluene) and added to scintillation vials containing Optiphase® (95-99% diisopropylnaphthalene).
# [19] = tested on: MAWI; assay: Cellular uptake of [^14C]-labelled temozolomide; assay type: in vitro ADME, human; settings: 4°C, 200 µM labelled drug
# Experimental: as §3
smiles,measurement,setting,value
"Nc1nc(OCc2ccccc2)c2[nH]cnc2n1 [BG, O^6-benzylguanine]",ATase content after BG,[1]; MAWI cells,undetectable level
same,ATase content after BG,[1]; human ATase cDNA transfected XP fibroblasts,undetectable level
same,stable in tissue culture medium,[2],at least 24 hours
"O=NN(CCCl)C(=O)NC1CCCCC1 [CCNU, lomustine]",increase in toxicity (sensitivity) after pretreatment with a single non-toxic dose of BG,"[3]; single dose, over the tumour cell lines",≤ 6 fold
same,toxicity on a molar basis relative to temozolomide,"[3]; slopes of IC50 versus ATase content, Figure 1",approximately five
same,IC50,[4]; 2 hours 33 µM BG before,31 µM
same,IC50,[4]; without BG,70 µM
same,Ratio IC50 [-BG]/IC50 [+BG],[4],2.2
same,IC50,[5]; 2 hours 33 µM BG before,25 µM
same,IC50,[5]; without BG,12 µM
same,Ratio IC50 [-BG]/IC50 [+BG],[5],0.5
same,IC50,[6]; 2 hours 33 µM BG before,30 µM
same,IC50,[6]; without BG,133 µM
same,Ratio IC50 [-BG]/IC50 [+BG],[6],4.4
same,IC50,[7]; 2 hours 33 µM BG before,12 µM
same,IC50,[7]; without BG,15 µM
same,Ratio IC50 [-BG]/IC50 [+BG],[7],1.2
same,IC50,[8]; 2 hours 33 µM BG before,13 µM
same,IC50,[8]; without BG,73 µM
same,Ratio IC50 [-BG]/IC50 [+BG],[8],5.7
same,IC50,[9]; 2 hours 33 µM BG before,8.8 µM
same,IC50,[9]; without BG,28 µM
same,Ratio IC50 [-BG]/IC50 [+BG],[9],3.2
same,IC50,[10]; 2 hours 33 µM BG before,32 µM
same,IC50,[10]; without BG,92 µM
same,Ratio IC50 [-BG]/IC50 [+BG],[10],2.9
CC1CCC(NC(=O)N(CCCl)N=O)CC1 (stereo not drawn) [Me CCNU],decrease in the ED50 when combined with O^6-benzylguanine,[11],3.8 fold
"NC(=O)c1ncn2c(=O)n(CCCl)nnc12 [mitozolomide, 8-carbamoyl-3-(2-chloroethyl)imidazo[5,1-d]-1,2,3,5-tetrazin-4-(3H)-one]",IC50,[12],0.8 µM
same,sensitivity of control XP cells relative to human ATase cDNA-transfected cells,[12],4-5 fold
same,IC50,[13],4.2 µM
"Cn1nnc2c(C(N)=O)ncn2c1=O [temozolomide, 8-carbamoyl-3-methylimidazo[5,1-d]-1,2,3,5,-tetrazin-4-(3H)-one]",difference in the single dose cytotoxicity between MCF-7 and the colorectal lines (LOVO and MAWI),[3]; single dose,3-4 fold
same,effect of BG pretreatment on cytotoxicity of temozolomide,[14],no measurable effect
same,IC50,[15]; with BG,18 µM
same,IC50,[15]; without BG,51 µM
same,potentiation of temozolomide toxicity by BG,"[15]; U373 cells, four 24 hour doses, BG present",3 fold
same,IC50,[12],23 µM
same,sensitivity of control XP cells relative to human ATase cDNA-transfected cells,[12],4-5 fold
same,IC50,[13],100 µM
same,IC50,[4]; 2 hours 33 µM BG before,171 µM
same,IC50,[4]; without BG,325 µM
same,Ratio IC50 [-BG]/IC50 [+BG],[4],1.9
same,IC50,[5]; 2 hours 33 µM BG before,23 µM
same,IC50,[5]; without BG,32 µM
same,Ratio IC50 [-BG]/IC50 [+BG],[5],1.4
same,IC50,[6]; 2 hours 33 µM BG before,335 µM
same,IC50,[6]; without BG,1170 µM
same,Ratio IC50 [-BG]/IC50 [+BG],[6],3.5
same,IC50,[7]; 2 hours 33 µM BG before,78 µM
same,IC50,[7]; without BG,131 µM
same,Ratio IC50 [-BG]/IC50 [+BG],[7],1.7
same,IC50,[8]; 2 hours 33 µM BG before,632 µM
same,IC50,[8]; without BG,873 µM
same,Ratio IC50 [-BG]/IC50 [+BG],[8],1.4
same,IC50,[9]; 2 hours 33 µM BG before,131 µM
same,IC50,[9]; without BG,172 µM
same,Ratio IC50 [-BG]/IC50 [+BG],[9],1.3
same,IC50,[10]; 2 hours 33 µM BG before,323 µM
same,IC50,[10]; without BG,848 µM
same,Ratio IC50 [-BG]/IC50 [+BG],[10],2.6
same,IC50,[1]; LOVO,50 to 100 µM
same,IC50,[1]; MAWI,50 to 100 µM
same,IC50,[1]; MCF-7,50 to 100 µM
same,IC50,[1]; U373,50 to 100 µM
same,IC50,"[16]; MCF7, 24 h, DAY 1, with BG",89 µM
same,IC50,"[16]; MCF7, 24 h, DAY 1, without BG",319 µM
same,IC50,"[16]; MCF7, 48 h, DAY 2, with BG",51 µM
same,IC50,"[16]; MCF7, 48 h, DAY 2, without BG",319 µM
same,IC50,"[16]; MCF7, 72 h, DAY 3, with BG",11 µM
same,IC50,"[16]; MCF7, 72 h, DAY 3, without BG",375 µM
same,IC50,"[17]; 24 h, DAY 1, with BG",196 µM
same,IC50,"[17]; 24 h, DAY 1, without BG",319 µM
same,IC50,"[17]; 48 h, DAY 2, with BG",59 µM
same,IC50,"[17]; 48 h, DAY 2, without BG",350 µM
same,IC50,"[17]; 72 h, DAY 3, with BG",21 µM
same,IC50,"[17]; 72 h, DAY 3, without BG",383 µM
same,IC50,"[17]; 96 h, DAY 4, with BG",7.2 µM
same,IC50,"[17]; 96 h, DAY 4, without BG",383 µM
same,IC50,"[17]; 120 h, DAY 5, with BG",1 µM
same,IC50,"[17]; 120 h, DAY 5, without BG",326 µM
same,time to complete uptake,[18],≤ 5 min
same,time to complete uptake,[19],≤ 5 min
